Assay results published in patent publication US20150359763A1, “USE OF 3-BROMOPYRUVATE AS A CONTRACEPTIVE” (Board of Regents of the Nevada System of Higher Education, …, priority 2013, published 2015).
“And” between values parts separate entries of the source, which are not always exact repeats. Equal entries are not always repeated. “Also recorded” adds a separate entry of the source. Where two headings read alike, the source gives them in different places.

Legend:
[1] = system: mouse cauda epididymal sperm; experiment: Mouse sperm motility in HTF with compound, measured by CASA; assay type: cell-based; conditions: for development of sperm motility: incubated 30 min and 60 min; for inhibition of sperm motility in vitro: HTF with 1 mM analog, 5 to 60 min
Experimental: Sperm motility requires energy, the sources of which include both glycolysis and mitochondrial activity. The effects of four glycolytic inhibitors (3-bromopyruvate, 2-deoxyglucose, lonidamin and oxythiamine) on sperm motility were evaluated. First mouse cauda epididymal sperm were collected into PBS, HTF (sperm-activating solution), HTF supplemented with 1 mM 3-Bromopyruvate, HTF containing 1 mM 2-Deoxyglucose, HTF with 0.5 mM Lonidamin and HTF with 1 MM Oxythiamine. Epididymal sperm can gain partial motility in PBS, but will never develop hyperactivated motility, which is required for sperm to be competent to fertilize eggs. On the other hand, when epididymal sperm are incubated in human tubular fluid (HTF) medium, which contains all of the sperm motility-activating factors, sperm will quickly develop hyperactivated motility and the motility peaks within 30 minutes and can last at least for several hours at 37° C. In the present studies, mouse cauda epididymal sperm were incubated in PBS, HTF and HTF supplemented with the 4 compounds for 30 min and 60 min. Sperm motility was then measured by Computer-Assisted Sperm Analysis (CASA). […] These studies indicate that in the presence of 3BP (at 1 mM), sperm cannot develop motility.
To determine how quickly 3BP could immobilize sperm, mouse cauda epididymal sperm were collected into HTF and HTF supplemented with 1 mM 3BP, respectively. Sperm were then incubated at 37° C. for 5, 10, 20 30, 40 and 60 min, respectively. Sperm motility was completely lost within 10 minutes at 1 mM concentration and the inhibitory effect appeared to be permanent (see FIG. 3).
Given that 3BP could immobilize sperm, it was determined if analogs of 3BP could have the same effect. Four 3BP analogs, including methyl-pyruvate, ethyl-pyruvate, isoamyl-pyruvate and propyl-pyruvate, were tested to determine if they also had the inhibitory effect on sperm in vitro. In the first study, the effects of methyl-pyruvate and ethyl-pyruvate on sperm motility were evaluated (FIG. 4A). Mouse epididymal sperm were collected into HTF (control), HTF containing 1 mM Methyl-pyruvate and HTF with 1 mM ethyl-pyruvate, respectively. After incubation at 37° C. for 5, 10, 20, 30, 40 and 60 min, sperm motility was measured using CASA.

[2] = system: mouse cauda epididymal sperm; experiment: Permanence of sperm immobilization: exposure in PBS, wash, activation in HTF, CASA; assay type: cell-based; conditions: for motility development after short exposure and washout / motility developed in HTF after exposure and washing: 37° C.; for motility development after short exposure and washout: 5 min, washed, HTF 30 and 60 minutes; for motility developed in HTF after exposure and washing: PBS with 1 mM 3-BrPA, 1-30 min, washed twice, HTF 30 min and 60 min
Experimental: Studies were then performed to determine if sperm-immobilizing effects of 3BP were permanent or transient. Mouse cauda epididymal sperm were collected into PBS (control), PBS containing 1 mM 3BP, PBS containing 1 mM deoxyglucose, PBS with 0.5 mM lonidamine and PBS with 1 mM oxythiamine, followed by incubation at 37° C. for 5 min. The compounds were then washed away with PBS and then the treated sperm were incubated in HTF medium for 30 minutes and 60 minutes, followed by measurement of sperm motility by CASA. […] Again, 3BP had the strongest effects. […] These studies indicate that the sperm motility-abolishing effect of 3BP was permanent. Further, once exposed, sperm will never be able to develop motility.
To determine if sperm exposed to 3BP could still be activated in HTF, mouse sperm from the cauda epididymis were collected into PBS (control) and PBS containing 1 mM 3-BrPA, respectively. Then sperm were incubated in 37° C. for 1, 5, 10, 20 and 30 min, respectively. To remove 3BP, the sperm were washed twice with PBS. The sperm were then transferred to the HTF medium and activated for 30 min (FIG. 5, A) and 60 min (FIG. 5, B), followed by measurement the sperm motility using CASA.

[3] = system: mouse cauda epididymal sperm; experiment: Mouse sperm motility in HTF with compound, measured by CASA; assay type: cell-based; conditions: 1 mM 3BP, activated mouse sperm (HTF 30 minutes, 37° C.)
human "swim-up" sperm [4] = experiment: EC50 and EC100 for immobilizing human sperm within 20 seconds of contact, CASA; assay type: cell-based; conditions: for EC50: read-out: EC50 (50% of motile sperm immobilized within 20 seconds of contact)
Experimental: (§1) To determine at what concentrations 3BP can block the motility of 50% and 100% of the total motile sperm, mouse epididymal sperm were collected into PBS (pH 7.5) and then transferred to pre-warmed (37° C.) HTF medium containing serial dilutions of 3BP (pH 7.5) at concentrations ranging from 10 to 130 mM with a 10 mM increment. Motility was measured using CASA upon 20 seconds of contact with 3BP. […] Therefore, the 3BP EC50 is ˜40˜50 mM and EC100 is ˜100 mM for mouse epididymal sperm at pH 7.5 (FIG. 9). Similarly, the EC50 and EC100 of 3BP in immobilizing human sperm were determined. Human “swim-up” sperm were added to HTF containing 3BP at increasing concentrations ranging from 100 mM to 210 mM at pH 7.5. Sperm motility was measured upon 20 seconds of contact using CASA. […] However, the vaginal environment tends to be acidic (˜pH 5.0) and the effectiveness of 3BP in immobilizing sperm was further evaluated when pH was set at ˜5.0 (FIGS. 10 and 12).

[5] = system: sperm mitochondrial membrane potential; experiment: Sperm mitochondrial membrane potential, JC-1 assays; assay type: cell-based; conditions: 3BP 1 mM
Experimental: (§2) Whether 3BP could block mitochondrial activity in sperm was further examined because mitochondria also contribute energy production in sperm (FIG. 14). […] In control sperm trajectory tracking assays, the cauda epididymal sperm were collected into the HTF medium and incubated for 1, 5, 10 and 20 min (FIG. 15). In 3BP-treated sperm trajectory tracking assays, the cauda epididymal sperm were collected HTF+1 mM 3-BrPA and incubated for 1, 5, 10 and 20 min (FIG. 15). In control human sperm trajectory tracking assays, the human “swim-up” sperm were incubated HTF for 1, 5, 10, and 20 minutes (FIG. 16). In 3BP-treated human sperm movie clips, the human “swim-up” sperm were incubated in HTF+1 mM 3-BrPA for 1, 5, 10 and 20 minutes (FIG. 16). Further, the histology of the vagina and uterus in female mice that received daily intravaginal application of 3BP (200-400 ul lubricant containing 20 mM 3BP) for 3 months was accessed.

sperm ATP production = experiment: Sperm ATP content, Luciferase Bioluminescence Assay kit; assay type: cell-based; conditions: 1 mM 3BP, during 60 min activation by HTF
Experimental: The ATP production in sperm was measured with or without exposure to 1 mM 3BP during 60 min activation by HTF. Sperm ATP contents were measured using a Luciferase Bioluminescence Assay kit (FIG. 13). […] However, such a drastic suppression cannot be explained solely by its anti-glycolytic property because glycolysis provides only partial energy sperm motility requires.

human semen = experiment: Sperm motility in liquidified human semen with 3BP; assay type: cell-based; conditions: 1 mM 3BP added directly to liquidified semen, 37° C.
Experimental: To evaluate the effect of 3BP on sperm motility in human semen, human semen was liquidified under room temperature and 3BP was directly added into the liquidified semen at a concentration of 1 mM followed by incubation at 37° C. for 1, 5, 10, 20 and 30 minutes (FIGS. 7 and 8). These studies indicate that 3BP can completely abolish human sperm motility within 5 minutes of contact.

mouse epididymal sperm = experiment: EC50 and EC100 for immobilizing mouse sperm within 20 seconds of contact, CASA; assay type: cell-based
Experimental: as §1

human "swim-up" sperm [6] = experiment: Motility of human swim-up sperm exposed to 3BP, CASA; assay type: cell-based; conditions: 1 mM 3BP
Experimental: In normal men in their reproductive ages, ˜30-40% of sperm in human ejaculates are immotile or display weak motility. A ‘swim-up” procedure allows motile sperm to be enriched. To see the potential of 3BP in suppressing sperm motility, the swim-up procedure was first performed to allow the collection of motile sperm and then the motile human sperm were exposed to 3BP to determine if their motility could be abolished. The human semen was left at room temperature for 30 minutes for liquidification and then 2˜3 ml pre-warmed HTF medium were added followed by centrifugation at 1,500 rpm for 5 min. The sperm pellets were resuspended in 1 ml pre-warmed HTF medium and then incubated at 37° C. in anincubator for 60 min. Motile sperm will “swim up” and stay in the upper portion of the medium, in which motile sperm are enriched in. The “swim-up” sperm were collected, 3BP added at a concentration of 1 mM, and the sperm were incubated for 1, 5, 10, 20 and 30 min at 37° C., respectively. Sperm motility was then measured using CASA (FIG. 6).

[7] = system: vagina and uterus in female mice; experiment: Histology of vagina and uterus after daily intravaginal application; assay type: in vivo; conditions: daily intravaginal 200-400 ul lubricant containing 20 mM 3BP, 3 months
Experimental: as §2

Compound: O=CC[C@@H](O)[C@H](O)[C@H](O)CO [2-deoxyglucose, reference compound]
- development of sperm motility ([1]; HTF with 1 mM compound): appeared to inhibit the development of sperm motility
- motility development after short exposure and washout ([2]; PBS with 1 mM compound): will permanently impair motility development

Compound: O=C(O)C(=O)CBr [3BP, 3-bromo-2-oxopropanoic acid]
- time to complete loss of sperm motility ([1]; HTF with 1 mM 3BP, 37° C.): ≤ 10 min
- development of sperm motility ([1]; HTF with 1 mM compound): almost completely blocked the development of sperm motility
- exposure time to permanent immobilization with complete loss of motility [3]: less than 1 minute
- exposure time to permanent immobilization with complete loss of motility ([2]; 1 mM 3BP, murine non-activated sperm collected from the epididymis into physiological saline): less than 1 minute
- motility developed in HTF after exposure and washing [2]: irreversible
- motility developed in HTF after exposure and washing ([2]; listed as 3-BrPA): No motility was developed
- motility development after short exposure and washout ([2]; PBS with 1 mM compound): permanent; also recorded: could not develop motility
- EC50 (human "swim-up" sperm [4]; Homo sapiens, Sperm, pH 5, human sperm, pH 5.0): 14 mM
- EC100 (100% of motile sperm immobilized within 20 seconds of contact) (human "swim-up" sperm [4]; human sperm, pH 5.0): 23 mM and ~24 mM
- EC50 (human "swim-up" sperm [4]; human sperm, pH 5.0): ~13 mM
- EC100 (100% of motile sperm immobilized within 20 seconds of contact) (human "swim-up" sperm [4]; human sperm, pH 7.5): ~200 mM
- sperm mitochondrial membrane potential [5]: inhibition of sperm mitochondrial membrane potential; also recorded: could inhibit the mitochondrial membrane potential
- sperm ATP production (sperm ATP production): can effectively block sperm ATP production
- time to completely abolish human sperm motility (human semen): ≤ 5 min
- EC100 (100% of motile sperm immobilized within 20 seconds of contact) (mouse epididymal sperm; pH 4.8): ~17 mM
- EC50 (mouse epididymal sperm; pH 4.8, read-out: EC50 (50% of motile sperm immobilized within 20 seconds of contact)): ~5 mM
- EC100 (100% of motile sperm immobilized within 20 seconds of contact) (mouse epididymal sperm; pH 7.5): ~100 mM
- EC50 (mouse epididymal sperm; pH 7.5, read-out: EC50 (50% of motile sperm immobilized within 20 seconds of contact)): 40 to 50 mM
- time to abolish motility of motile human sperm (human "swim-up" sperm [6]; 37° C., swim-up sperm in HTF): 1 to 5 min
- exposure time to permanent immobilization with complete loss of motility (human "swim-up" sperm [6]; activated human sperm (HTF 30 minutes, 37° C.)): less than 1 minute
- histology of the vagina and uterus [7]: no significant changes in the histology; also recorded: No discernible pathological changes were observed

Compound: CCOC(=O)C(C)=O [ethyl-pyruvate]
- inhibition of sperm motility in vitro ([1]; 37° C.): None of the treatments resulted in inhibition of sperm motility
- inhibition of sperm motility in vitro ([1]; 37° C., listed as ethyl pyruvate): no effect on sperm motility

Compound: CC(=O)C(=O)OCCC(C)C [isoamyl-pyruvate]
- inhibition of sperm motility in vitro ([1]; 37° C.): no effect on sperm motility

Compound: O=C(O)c1nn(Cc2ccc(Cl)cc2Cl)c2ccccc12 [lonidamin, reference compound]
- development of sperm motility ([1]; HTF with 0.5 mM Lonidamin): appeared to inhibit the development of sperm motility
- motility development after short exposure and washout ([2]; PBS with 0.5 mM lonidamine): will permanently impair motility development

Compound: Cc1ncc(C[n+]2csc(CCO)c2C)c(=O)[nH]1 [oxythiamine, reference compound]
- development of sperm motility ([1]; HTF with 1 mM compound): appeared to inhibit the development of sperm motility
- motility development after short exposure and washout ([2]; PBS with 1 mM compound): will permanently impair motility development

Compound: CCCOC(=O)C(C)=O [propyl-pyruvate]
- inhibition of sperm motility in vitro ([1]; 37° C.): no effect on sperm motility
